Results taken from publication PMC5537602, “TRPA1 channel mediates organophosphate-induced delayed neuropathy” (Cell Discovery, 2017).

What was measured:
mice [1] = test: Behavioral testing of mice (paw-licking time after intraplantar injection); format: in vivo, mouse
Description: The chosen mice were allowed to acclimate to the experimental environment for at least 2 h before testing. Intraplantar injection of 5% AITC and 30% malathion (10 μl) was achieved using separate injectors. Spontaneous pain evoked by the compounds was assessed by measuring the time (s) the mice spent on licking. For the HC030031 groups, 200 mg kg^−1 HC030031 was intragastrically administered, and then the test was conducted after 1 h. The testing phase was divided into two parts: 0–10 min and 11–60 min.

mice [2] = test: Transmission electron microscopy of local nerve fibers in mice; format: in vivo, mouse
Description: For mice, subcutaneous tissue from the site of exposure was removed and fixed by immediate immersion in ice-cold 2.5% glutaraldehyde. Subsequently, the samples were post-fixed in 1% OsO4 for 1 h, dehydrated with an ethanol series and embedded in epon resin. Sixty-nanometer ultra-thin sections were double stained with lead citrate and uranyl acetate and examined using an electron microscopy.

mouse DRG neurons = test: Whole-cell patch-clamp of small-diameter DRG neurons; format: cell-based
Description: DRG neurons were isolated from young C57 BL/6 mice (4–5 weeks). The sections of thoracic and lumbar DRG neurons were rapidly isolated in calcium and magnesium-free PBS with low temperature conditions (ice-bath environment). The isolated tissues were cut into pieces with scissor and incubated for 30 min with 0.1% collagenase and 0.025% trypsin which were diluted by DMEM-F12 at 37 °C. After digestion, neurons were gently dissociated using Pasteur pipettes and then plated onto poly-D-lysine pre-coated glass cover slips. DRG neurons were cultured for 24 h before use.
(§1) Whole-cell patch-clamp recordings in DRG neurons (small diameter, […]) and HEK293 cells were operated at room temperature (23–25 °C) using EPC-10 amplifier and Patch Master Software (HEKA). […] Currents were sampled at 10 kHz and low-pass filtered at 2.9 kHz. The internal solution was as follows (in mM): 140 CsCl, 10 HEPES, 5 EGTA, 0.1 CaCl2 and 1 MgCl2, with pH adjusted to 7.2 by CsOH and osmolarity 295–300 mOsm. The calcium-free external solution contained (in mM) 140 NaCl, 5 KCl, 0.5 EGTA, 1 MgCl2, 10 Glucose and 10 HEPES, with pH adjusted to 7.4 by NaOH and osmolarity 300–310 mOsm. The 0.5 mM EGTA was replaced by 2 mM CaCl2 for the recordings in DRG neurons. TRPA1 currents development was monitored with repetitive injections of 300 ms duration voltage ramps from −100 to +100 mV every 2 s and the holding potential was set to 0 mV for 50 ms, existing in both sides of the voltage ramp. To record inward currents in DRG neurons, we conducted voltage clamp at holding membrane potential of −70 mV. Solutions were switched using a gravity-fed continuous focal perfusion system.

mTRPA1 = mTRPA1 (Mus musculus, UniProt Q8BLA8); test: Whole-cell patch-clamp, HEK293 cells expressing mTRPA1; format: cell-based; parameters: expressed in transfected cells; host or cells: HEK293
Description: (§2) Human embryonic kidney 293 (HEK293) cells were cultured in DMEM containing 10% (vol/vol) heat-inactivated fetal bovine serum, 100 units ml^−1 penicillin–streptomycin and 2 mM L-glutamine at 37 °C in a humidity-controlled sterile incubator with 5% CO2. All cell culture reagents were purchased from Life Technologies. HEK293 cells were transfected transiently with the corresponding plasmids using lipofectamine 2000 (Life Technologies). Transfection efficiency was monitored by co-transfecting EGFP plasmid which codes for the enhanced green fluorescent protein. Electrophysiological recordings were performed between 24 and 36 h after transfection.
as §1

rTRPA1 = biological target: T1, rTRPA1 (Rattus norvegicus, UniProt Q6RI86); test: Whole-cell patch-clamp, HEK293 cells expressing rTRPA1; format: cell-based
T1 construct: expressed in transfected cells; host or cells: HEK293, transient
Description: as §2, §1

hens = test: Transmission electron microscopy of hen spinal cord and sciatic nerve; format: in vivo
Description: For hens, the animals were anesthetized with sodium pentobarbital (100 mg kg^−1) and killed 21 days after exposure to TOCP and malathion. They were then perfused with normal saline followed immediately by 4% paraformaldehyde. The lumbar spinal cord at approximately the L2-L3 level and the sciatic nerve of the left leg were removed and fixed by immersion in ice-cold 2.5% glutaraldehyde. Subsequently, the samples were post-fixed in 1% OsO4 for 1 h, dehydrated with the ethanol series, and embedded in epon resin. Sixty-nanometer ultra-thin sections were double stained with lead citrate and uranyl acetate and examined with an electron microscopy.

[3] = HC030031 200 mg kg−1 per oral, 1 h before test
[4] = 10 μM HC030031, malathion or TOCP as agonist
[5] = 30 μM, calcium-free external solution

T1 sequence (Q6RI86 whole entry): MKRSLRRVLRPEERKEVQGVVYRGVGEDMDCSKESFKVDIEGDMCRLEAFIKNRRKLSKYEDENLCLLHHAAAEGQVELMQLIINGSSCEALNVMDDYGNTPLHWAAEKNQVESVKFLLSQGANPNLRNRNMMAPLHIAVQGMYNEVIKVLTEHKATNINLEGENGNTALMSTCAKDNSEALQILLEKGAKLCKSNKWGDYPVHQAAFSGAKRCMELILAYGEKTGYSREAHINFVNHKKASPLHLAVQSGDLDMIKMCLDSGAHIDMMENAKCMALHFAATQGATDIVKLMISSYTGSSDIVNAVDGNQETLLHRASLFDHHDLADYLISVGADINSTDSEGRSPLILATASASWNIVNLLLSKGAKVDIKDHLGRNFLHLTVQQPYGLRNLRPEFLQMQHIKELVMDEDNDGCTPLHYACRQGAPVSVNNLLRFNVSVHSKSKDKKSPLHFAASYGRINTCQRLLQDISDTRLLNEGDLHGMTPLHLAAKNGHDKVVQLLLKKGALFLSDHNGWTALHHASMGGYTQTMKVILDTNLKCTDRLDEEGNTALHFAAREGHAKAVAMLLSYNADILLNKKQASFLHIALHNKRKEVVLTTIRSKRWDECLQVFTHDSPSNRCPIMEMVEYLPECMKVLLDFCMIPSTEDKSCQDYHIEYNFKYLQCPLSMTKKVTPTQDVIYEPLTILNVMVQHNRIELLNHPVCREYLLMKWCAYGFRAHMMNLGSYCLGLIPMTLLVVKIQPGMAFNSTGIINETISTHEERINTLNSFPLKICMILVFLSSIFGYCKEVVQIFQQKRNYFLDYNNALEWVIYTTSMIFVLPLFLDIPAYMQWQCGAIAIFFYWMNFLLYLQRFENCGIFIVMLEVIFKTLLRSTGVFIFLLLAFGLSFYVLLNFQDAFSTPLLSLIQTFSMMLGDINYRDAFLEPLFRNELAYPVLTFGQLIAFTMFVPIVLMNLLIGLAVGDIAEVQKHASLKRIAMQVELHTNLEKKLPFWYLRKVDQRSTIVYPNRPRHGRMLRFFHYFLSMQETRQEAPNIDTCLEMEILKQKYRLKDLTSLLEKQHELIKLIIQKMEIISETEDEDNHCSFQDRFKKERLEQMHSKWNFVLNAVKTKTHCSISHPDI
mTRPA1, sequence (Q8BLA8 whole entry): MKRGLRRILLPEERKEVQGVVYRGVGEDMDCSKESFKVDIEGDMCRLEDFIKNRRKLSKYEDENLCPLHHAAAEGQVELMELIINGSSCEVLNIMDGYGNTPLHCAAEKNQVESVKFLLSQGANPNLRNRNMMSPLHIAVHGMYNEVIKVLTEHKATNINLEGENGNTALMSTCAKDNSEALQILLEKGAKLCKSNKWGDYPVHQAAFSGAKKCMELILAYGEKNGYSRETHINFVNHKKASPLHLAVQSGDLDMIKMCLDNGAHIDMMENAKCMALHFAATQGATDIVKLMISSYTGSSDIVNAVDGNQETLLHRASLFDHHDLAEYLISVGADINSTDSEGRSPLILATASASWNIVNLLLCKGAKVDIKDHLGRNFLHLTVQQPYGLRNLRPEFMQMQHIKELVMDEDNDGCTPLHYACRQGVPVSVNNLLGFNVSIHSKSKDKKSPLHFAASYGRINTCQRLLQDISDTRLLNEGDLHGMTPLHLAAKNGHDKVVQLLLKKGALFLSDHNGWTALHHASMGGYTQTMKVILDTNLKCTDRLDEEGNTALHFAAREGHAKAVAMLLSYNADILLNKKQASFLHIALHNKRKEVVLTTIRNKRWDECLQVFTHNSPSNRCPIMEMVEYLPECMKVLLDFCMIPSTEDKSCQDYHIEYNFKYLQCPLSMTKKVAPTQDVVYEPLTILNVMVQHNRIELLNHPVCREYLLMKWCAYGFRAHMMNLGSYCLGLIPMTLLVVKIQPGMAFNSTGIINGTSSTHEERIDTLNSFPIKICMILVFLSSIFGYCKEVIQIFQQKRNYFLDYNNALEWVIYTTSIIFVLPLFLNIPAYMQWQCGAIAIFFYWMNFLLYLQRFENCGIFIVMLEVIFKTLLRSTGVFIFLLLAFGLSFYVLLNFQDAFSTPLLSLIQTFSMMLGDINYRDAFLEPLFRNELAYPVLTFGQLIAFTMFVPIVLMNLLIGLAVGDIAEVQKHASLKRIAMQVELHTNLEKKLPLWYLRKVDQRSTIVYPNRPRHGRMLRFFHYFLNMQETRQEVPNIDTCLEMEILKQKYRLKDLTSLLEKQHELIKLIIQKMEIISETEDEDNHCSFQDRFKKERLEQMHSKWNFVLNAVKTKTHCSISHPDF

## CC(C)c1ccc(NC(=O)Cn2cnc3c2c(=O)n(C)c(=O)n3C)cc1 [HC030031]
Mice [1]; [3]
  effect on AITC-evoked nocifensive behavior: suppressed
  effect on malathion-evoked nociception-like behavior: blocked
Mice [2]; HC030031 pretreatment
  effect on malathion-induced myelin sheath damage (TEM): significantly protected the myelin sheath
Mouse DRG neurons; 10 μM HC030031
  effect on AITC- or malathion-elicited action potentials: suppressed
  inhibition of malathion-induced inward currents in DRG neurons: inhibited
mTRPA1; [4]
  block of agonist-elicited mTRPA1 currents: blocked
rTRPA1; [4]
  block of agonist-elicited rTRPA1 currents: blocked
hens; HC030031 100 mg kg−1
  effect on TOCP- or malathion-induced nerve injuries (TEM): significantly reduced

## CCOC(=O)CC(SP(=S)(OC)OC)C(=O)OCC (stereo not drawn) [malathion, S-[1,2-bis (ethoxycarbonyl)ethyl] O, O-dimethyl phosphorodithioate]
Mice [1]; Trpa1−/− mice, 30% malathion intraplantar
  nociception-like behavior in Trpa1−/− mice: not observed
Mice [1]; WT mice, AITC 10 μl 5%, malathion 10 μl 30%, intraplantar
  nocifensive behavior (paw-licking) after plantar injection: nociception-like behavior
Mice [2]; WT mice, plantar injection, 5% AITC or 30% malathion
  nerve fiber damage around the injection site (TEM): damage of the myelin sheath
Mouse DRG neurons; 100 μM
  action potential firing in WT small-diameter neurons: bursts of action potentials
Mouse DRG neurons; Trpa1−/− neurons, 17/17
  currents in neurons from Trpa1−/− mice: failed to induce currents
Mouse DRG neurons; small-diameter neurons from WT mice, 7/18
  neurons with robust inward currents: ~ 39%
mTRPA1; [5]
  activation of mTRPA1 whole-cell currents: large activation current
rTRPA1; [5]
  activation of rTRPA1 whole-cell currents: large activation current
hens; 21 days after exposure
  damage of spinal cord and sciatic nerve (TEM): severely damaged the spinal cord and sciatic nerve
